According to publication PMC11876601 (Molecular Systems Biology, 2025):
Like-named read-outs stand apart in the source and are kept apart here.

Key:
MAPK10 = conditions: cited from earlier work
BMP2K = conditions: cited from earlier work
RPS6KA4 = conditions: cited from earlier work
TNK2 = conditions: cited from earlier work
AURKB = conditions: cited from earlier work
ERN1 = conditions: cited from earlier work
ULK3 = conditions: cited from earlier work
MARK3 = conditions: cited from earlier work
AAK1 = conditions: cited from earlier work
TNK1 = conditions: cited from earlier work
PRKD2 = conditions: cited from earlier work
PRKD3 = conditions: cited from earlier work
FER = conditions: cited from earlier work
FLT3 = conditions: cited from earlier work
MAP4K1 = conditions: cited from earlier work
CLK1 = conditions: cited from earlier work
RET = conditions: cited from earlier work
PaTu-8988-T = test: cells; parameters: ATPlite luminescence viability of PDAC cell lines, 11-dose single-agent curves, 4-parameter fit; conditions: Homo sapiens, PaTu 8988t, 72 h, read-out: EC50 [nM]
In short: (§1)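 cells (1000 to 5000 per well) seeded 24 h before drug addition in a combination screen at 0.2% final DMSO. Controls were drug-free wells (negative) and 5 µM staurosporine (positive).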

BxPC-3 = test: cells; parameters: ATPlite luminescence viability of PDAC cell lines, 11-dose single-agent curves, 4-parameter fit; conditions: Homo sapiens, BXPC-3, 72 h, read-out: EC50 [nM]
In short: as §1

CAMK2D = conditions: cited from earlier work
CHEK1 = conditions: cited from earlier work; for Kd: read-out: KDapp
AURKA = conditions: cited from earlier work
AsPC-1 = test: cells; parameters: ATPlite luminescence viability of PDAC cell lines, 11-dose single-agent curves, 4-parameter fit; conditions: Homo sapiens, ASPC1, 72 h, read-out: EC50 [nM]
In short: as §1

[1] = 4 cell line mix lysate, Kinobeads y, ref Klaeger et al. (2017)
[2] = MAPK10, 5 cell line mix lysate, Kinobeads ε, ref Reinecke et al. (2023)
[3] = 5 cell line mix lysate, Kinobeads ε, ref Reinecke et al. (2023), read-out: KDapp
[4] = 5 cell line mix lysate, Kinobeads ε, ref Reinecke et al. (2023)
[5] = RPS6KA4, 5 cell line mix lysate, Kinobeads ε, ref Reinecke et al. (2023)
[6] = TNK2, 5 cell line mix lysate, Kinobeads ε, ref Reinecke et al. (2023)
[7] = ERN1, 5 cell line mix lysate, Kinobeads ε, ref Reinecke et al. (2023)
[8] = ULK3, 5 cell line mix lysate, Kinobeads ε, ref Reinecke et al. (2023)
[9] = MARK3, 5 cell line mix lysate, Kinobeads ε, ref Reinecke et al. (2023)
[10] = AAK1, 5 cell line mix lysate, Kinobeads ε, ref Reinecke et al. (2023)
[11] = TNK1, 5 cell line mix lysate, Kinobeads ε, ref Reinecke et al. (2023)
[12] = PRKD2, 5 cell line mix lysate, Kinobeads ε, ref Reinecke et al. (2023)
[13] = PRKD3, 5 cell line mix lysate, Kinobeads ε, ref Reinecke et al. (2023)
[14] = FLT3, 5 cell line mix lysate, Kinobeads ε, ref Reinecke et al. (2023)
[15] = MAP4K1, 5 cell line mix lysate, Kinobeads ε, ref Reinecke et al. (2023)
[16] = CLK1, 5 cell line mix lysate, Kinobeads ε, ref Reinecke et al. (2023)
[17] = CHEK1, 5 cell line mix lysate, Kinobeads ε, ref Reinecke et al. (2023)

SMILES: C[C@]12O[C@H](C[C@]1(O)CO)n1c3ccccc3c3c4c(c5c6ccccc6n2c5c31)CNC4=O [Lestaurtinib]
- EC50 (MAPK10; MAPK10, 4 cell line mix lysate, Kinobeads y, ref Klaeger et al. (2017)): 33.2 nM
- EC50 (BMP2K; [1]): 323 nM
- EC50 (MAP4K1; MAP4K1, 4 cell line mix lysate, Kinobeads y, ref Klaeger et al. (2017)): 347 nM
- EC50 (PaTu-8988-T): 407 nM
- EC50 (BxPC-3): 432 nM

SMILES: COc1cc(N2CCC(N3CCN(C)CC3)CC2)ccc1Nc1ncc(Cl)c(Nc2ccccc2P(C)(C)=O)n1 [Brigatinib]
- EC50 (MAPK10; [2]): 789 nM
- pKDapp (MAPK10; [2]): 6.18
- Kd (MAPK10; MAPK10, 5 cell line mix lysate, Kinobeads ε, ref Reinecke et al. (2023), read-out: KDapp): 663 nM
- Kd (BMP2K; [3]): 999 nM
- EC50 (BMP2K; [4]): 1510 nM
- pKDapp (BMP2K; [4]): 6.00
- EC50 (RPS6KA4; [5]): 2080 nM
- pKDapp (RPS6KA4; [5]): 5.89
- Kd (RPS6KA4; RPS6KA4, 5 cell line mix lysate, Kinobeads ε, ref Reinecke et al. (2023), read-out: KDapp): 1290 nM
- EC50 (TNK2; [6]): 5.93 nM
- pKDapp (TNK2; [6]): 8.57
- Kd (TNK2; TNK2, 5 cell line mix lysate, Kinobeads ε, ref Reinecke et al. (2023), read-out: KDapp): 2.67 nM
- Kd (AURKB; [3]): 1080 nM
- EC50 (AURKB; [4]): 1850 nM
- pKDapp (AURKB; [4]): 5.97
- EC50 (ERN1; [7]): 142 nM
- pKDapp (ERN1; [7]): 6.94
- Kd (ERN1; ERN1, 5 cell line mix lysate, Kinobeads ε, ref Reinecke et al. (2023), read-out: KDapp): 115 nM
- EC50 (ULK3; [8]): 306 nM
- pKDapp (ULK3; [8]): 6.86
- Kd (ULK3; ULK3, 5 cell line mix lysate, Kinobeads ε, ref Reinecke et al. (2023), read-out: KDapp): 139 nM
- EC50 (MARK3; [9]): 250 nM
- pKDapp (MARK3; [9]): 6.71
- Kd (MARK3; MARK3, 5 cell line mix lysate, Kinobeads ε, ref Reinecke et al. (2023), read-out: KDapp): 193 nM
- EC50 (AAK1; [10]): 328 nM
- pKDapp (AAK1; [10]): 6.66
- Kd (AAK1; AAK1, 5 cell line mix lysate, Kinobeads ε, ref Reinecke et al. (2023), read-out: KDapp): 220 nM
- EC50 (TNK1; [11]): 1.59 nM
- pKDapp (TNK1; [11]): 9.16
- Kd (TNK1; TNK1, 5 cell line mix lysate, Kinobeads ε, ref Reinecke et al. (2023), read-out: KDapp): 0.69 nM
- EC50 (PRKD2; [12]): 361 nM
- pKDapp (PRKD2; [12]): 6.62
- Kd (PRKD2; PRKD2, 5 cell line mix lysate, Kinobeads ε, ref Reinecke et al. (2023), read-out: KDapp): 238 nM
- EC50 (PRKD3; [13]): 259 nM
- pKDapp (PRKD3; [13]): 6.72
- Kd (PRKD3; PRKD3, 5 cell line mix lysate, Kinobeads ε, ref Reinecke et al. (2023), read-out: KDapp): 192 nM
- EC50 (FLT3; [14]): 142 nM
- pKDapp (FLT3; [14]): 7.12
- Kd (FLT3; FLT3, 5 cell line mix lysate, Kinobeads ε, ref Reinecke et al. (2023), read-out: KDapp): 76.3 nM
- EC50 (MAP4K1; [15]): 716 nM
- pKDapp (MAP4K1; [15]): 6.28
- Kd (MAP4K1; MAP4K1, 5 cell line mix lysate, Kinobeads ε, ref Reinecke et al. (2023), read-out: KDapp): 520 nM
- EC50 (CLK1; [16]): 13.1 nM
- pKDapp (CLK1; [16]): 8.03
- Kd (CLK1; CLK1, 5 cell line mix lysate, Kinobeads ε, ref Reinecke et al. (2023), read-out: KDapp): 9.35 nM
- Kd (RET; [3]): 125 nM
- EC50 (RET; [4]): 283 nM
- pKDapp (RET; [4]): 6.90
- EC50 (AsPC-1): 272 nM
- Kd (CAMK2D; [3]): 86.4 nM
- EC50 (CAMK2D; [4]): 424 nM
- pKDapp (CAMK2D; [4]): 7.06
- EC50 (CHEK1; [17]): 70.5 nM
- pKDapp (CHEK1; [17]): 7.24
- Kd (CHEK1; [17]): 58.2 nM
- Kd (CHEK1; Kinobeads, ref Klaeger et al, 2017a, Reinecke et al, 2023a): 70 nM
- Kd (AURKA; [3]): 224 nM
- EC50 (AURKA; [4]): 634 nM
- pKDapp (AURKA; [4]): 6.65

SMILES: CCN1CCN(Cc2ccc(Nc3ncc(F)c(-c4cc(F)c5nc(C)n(C(C)C)c5c4)n3)nc2)CC1 [Abemaciclib]
- EC50 (PaTu-8988-T): 2850 nM
- EC50 (AsPC-1): > 10000 nM
- EC50 (BxPC-3): 337 nM
